Source: ChEMBL document CHEMBL1146654, “3-(7-Azaindolyl)-4-arylmaleimides as potent, selective inhibitors of glycogen synthase kinase-3” (Bioorg Med Chem Lett, 2004)

What was measured:
[1] = target: Tyrosine-protein kinase Blk (Mus musculus) (UniProt P16277); test: Inhibition of B lymphoid tyrosine kinase; design: scale not given: the % may be the effect or the level left
[2] = target: Cyclin-dependent kinase 2/cyclin A (Homo sapiens, UniProt P24941); test: Inhibition of Cyclin-dependent kinase 2-cyclin A; assay type: protein-complex assay
[3] = target: CDK3/cyclin E (Homo sapiens) (UniProt P24864+O96020+Q00526); test: Inhibition of Cyclin-dependent kinase 3-cyclin E; assay type: protein-complex assay; design: scale not given: the % may be the effect or the level left
[4] = target: Cyclin-dependent kinase 5/CDK5 activator 1 (Homo sapiens) (UniProt Q00535+Q15078); test: Inhibition of Cyclin-dependent kinase 5-p35nck5a; assay type: protein-complex assay; design: scale not given: the % may be the effect or the level left
[5] = target: Cyclin-dependent kinase 1/cyclin B (Homo sapiens, UniProt P06493); test: Inhibition of Cyclin-dependent kinase 1-cyclin B; assay type: protein-complex assay
[6] = target: T1, Inhibitor of nuclear factor kappa-B kinase subunit beta (Homo sapiens) (UniProt O14920); test: Inhibition of I-kappa-B-kinase beta; design: scale not given: the % may be the effect or the level left
T1 sequence (whole entry): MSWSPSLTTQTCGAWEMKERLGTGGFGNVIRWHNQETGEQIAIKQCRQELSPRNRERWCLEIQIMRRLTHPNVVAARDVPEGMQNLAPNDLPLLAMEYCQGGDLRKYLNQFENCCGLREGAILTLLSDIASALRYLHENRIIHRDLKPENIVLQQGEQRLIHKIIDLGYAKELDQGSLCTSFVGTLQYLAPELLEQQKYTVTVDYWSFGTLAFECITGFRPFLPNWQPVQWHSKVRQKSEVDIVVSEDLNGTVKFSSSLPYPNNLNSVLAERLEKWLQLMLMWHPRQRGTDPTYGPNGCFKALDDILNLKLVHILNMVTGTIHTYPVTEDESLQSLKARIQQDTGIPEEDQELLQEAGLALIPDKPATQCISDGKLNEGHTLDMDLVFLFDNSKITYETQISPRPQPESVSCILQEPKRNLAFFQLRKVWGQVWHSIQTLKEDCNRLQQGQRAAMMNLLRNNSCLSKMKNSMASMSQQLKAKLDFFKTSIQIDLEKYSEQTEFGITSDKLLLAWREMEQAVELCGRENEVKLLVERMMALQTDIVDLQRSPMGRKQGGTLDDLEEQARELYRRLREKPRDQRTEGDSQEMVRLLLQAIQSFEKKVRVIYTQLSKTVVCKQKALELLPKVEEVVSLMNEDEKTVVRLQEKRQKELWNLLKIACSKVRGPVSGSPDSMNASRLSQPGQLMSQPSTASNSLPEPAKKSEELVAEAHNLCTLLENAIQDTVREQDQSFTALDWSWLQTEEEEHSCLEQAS

[7] = target: Mitogen-activated protein kinase 1 (Homo sapiens) (UniProt P28482); test: (§1) Inhibition of mitogen-activated protein kinase 2; design: scale not given: the % may be the effect or the level left
[8] = target: Mitogen-activated protein kinase 1 (Mus musculus) (UniProt P63085); test: as §1; design: scale not given: the % may be the effect or the level left
[9] = target: T2, Dual specificity mitogen-activated protein kinase kinase 4 (Mus musculus) (UniProt P47809); test: Inhibition of Mitogen activated protein kinase kinase 4; design: scale not given: the % may be the effect or the level left
T2 sequence (whole entry): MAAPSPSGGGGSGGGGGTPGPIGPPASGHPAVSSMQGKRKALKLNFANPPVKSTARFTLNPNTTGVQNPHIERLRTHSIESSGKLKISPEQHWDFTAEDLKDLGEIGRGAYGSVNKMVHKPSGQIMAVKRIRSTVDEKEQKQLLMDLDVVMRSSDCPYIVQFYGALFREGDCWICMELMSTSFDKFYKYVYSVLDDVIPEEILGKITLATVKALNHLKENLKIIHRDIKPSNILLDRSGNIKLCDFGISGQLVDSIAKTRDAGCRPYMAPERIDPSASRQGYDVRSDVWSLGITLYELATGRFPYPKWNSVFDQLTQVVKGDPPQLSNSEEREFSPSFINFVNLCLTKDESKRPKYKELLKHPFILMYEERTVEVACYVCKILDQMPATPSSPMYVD

[10] = target: T3, Dual specificity mitogen-activated protein kinase kinase 6 (Homo sapiens) (UniProt P52564); test: Inhibition of Mitogen activated protein kinase kinase 6; design: scale not given: the % may be the effect or the level left
T3 sequence (whole entry): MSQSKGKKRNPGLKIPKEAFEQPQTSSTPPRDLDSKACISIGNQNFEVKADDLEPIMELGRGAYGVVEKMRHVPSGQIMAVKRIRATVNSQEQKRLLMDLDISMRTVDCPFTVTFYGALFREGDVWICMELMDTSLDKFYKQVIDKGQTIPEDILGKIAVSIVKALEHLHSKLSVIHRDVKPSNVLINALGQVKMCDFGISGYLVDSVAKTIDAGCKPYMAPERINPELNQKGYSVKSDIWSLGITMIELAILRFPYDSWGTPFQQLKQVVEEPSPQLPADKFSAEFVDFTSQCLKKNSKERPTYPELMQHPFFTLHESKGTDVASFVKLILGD

[11] = target: Mitogen-activated protein kinase 3 (Homo sapiens) (UniProt P27361); test: Inhibition of compound against mitogen-activated protein kinase 1; design: scale not given: the % may be the effect or the level left
[12] = target: T4, MAP kinase-activated protein kinase 5 (Homo sapiens) (UniProt Q8IW41); test: Inhibition of PRAK, MAPK5; design: scale not given: the % may be the effect or the level left
T4 sequence (whole entry): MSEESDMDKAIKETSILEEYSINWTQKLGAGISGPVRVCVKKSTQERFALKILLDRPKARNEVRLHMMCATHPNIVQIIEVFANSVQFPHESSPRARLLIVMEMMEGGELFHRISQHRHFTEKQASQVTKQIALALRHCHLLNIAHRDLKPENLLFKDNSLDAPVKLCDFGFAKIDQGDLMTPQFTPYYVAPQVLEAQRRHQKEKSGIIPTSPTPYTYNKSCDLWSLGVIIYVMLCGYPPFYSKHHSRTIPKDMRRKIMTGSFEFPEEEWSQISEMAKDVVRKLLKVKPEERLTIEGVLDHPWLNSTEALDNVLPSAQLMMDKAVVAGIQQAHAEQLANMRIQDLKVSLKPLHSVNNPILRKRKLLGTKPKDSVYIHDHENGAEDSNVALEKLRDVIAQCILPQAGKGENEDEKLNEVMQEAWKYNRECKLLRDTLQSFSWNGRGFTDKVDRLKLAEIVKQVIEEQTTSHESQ

[13] = target: Serine/threonine-protein kinase Chk2 (Homo sapiens) (UniProt O96017); test: Inhibition of Serine/threonine-protein kinase Chk2; design: scale not given: the % may be the effect or the level left
[14] = target: Ribosomal protein S6 kinase alpha-2 (Homo sapiens) (UniProt Q15349); test: Inhibition of Ribosomal S6 kinase 2; design: scale not given: the % may be the effect or the level left
[15] = target: T5, Mitogen-activated protein kinase 12 (Homo sapiens) (UniProt P53778); test: Inhibition of Stress activated protein kinase 3; design: scale not given: the % may be the effect or the level left
T5 sequence (whole entry): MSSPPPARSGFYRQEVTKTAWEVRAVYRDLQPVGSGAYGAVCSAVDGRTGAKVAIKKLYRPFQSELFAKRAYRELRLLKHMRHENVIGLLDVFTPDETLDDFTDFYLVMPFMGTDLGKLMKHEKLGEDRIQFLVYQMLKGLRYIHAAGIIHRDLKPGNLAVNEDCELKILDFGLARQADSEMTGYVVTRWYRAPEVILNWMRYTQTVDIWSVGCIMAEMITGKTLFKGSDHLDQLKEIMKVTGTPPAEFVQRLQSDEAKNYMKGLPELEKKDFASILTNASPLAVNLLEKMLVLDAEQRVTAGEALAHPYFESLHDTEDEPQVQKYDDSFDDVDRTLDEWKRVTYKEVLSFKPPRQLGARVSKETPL

Chain of Cyclin-dependent kinase 5/CDK5 activator 1 (Homo sapiens) (Q00535 whole entry): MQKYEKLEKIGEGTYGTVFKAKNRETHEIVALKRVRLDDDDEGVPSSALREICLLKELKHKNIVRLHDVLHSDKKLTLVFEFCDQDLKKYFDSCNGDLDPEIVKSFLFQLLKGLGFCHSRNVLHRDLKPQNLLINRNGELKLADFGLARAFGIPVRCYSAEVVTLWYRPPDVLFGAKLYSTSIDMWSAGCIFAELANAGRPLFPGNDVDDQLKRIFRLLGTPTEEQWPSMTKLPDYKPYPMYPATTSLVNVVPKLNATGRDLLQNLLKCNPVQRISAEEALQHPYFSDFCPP
Chain of Cyclin-dependent kinase 5/CDK5 activator 1 (Homo sapiens) (Q15078 99-307 partner limits assumed): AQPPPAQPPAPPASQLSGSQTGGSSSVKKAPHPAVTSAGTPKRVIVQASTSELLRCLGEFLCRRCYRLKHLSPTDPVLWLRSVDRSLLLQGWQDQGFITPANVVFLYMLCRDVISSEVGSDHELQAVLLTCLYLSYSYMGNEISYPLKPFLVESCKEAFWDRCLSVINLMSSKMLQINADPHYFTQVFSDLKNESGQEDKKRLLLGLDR
Chain of Mitogen-activated protein kinase 3 (Homo sapiens) (P27361 whole entry): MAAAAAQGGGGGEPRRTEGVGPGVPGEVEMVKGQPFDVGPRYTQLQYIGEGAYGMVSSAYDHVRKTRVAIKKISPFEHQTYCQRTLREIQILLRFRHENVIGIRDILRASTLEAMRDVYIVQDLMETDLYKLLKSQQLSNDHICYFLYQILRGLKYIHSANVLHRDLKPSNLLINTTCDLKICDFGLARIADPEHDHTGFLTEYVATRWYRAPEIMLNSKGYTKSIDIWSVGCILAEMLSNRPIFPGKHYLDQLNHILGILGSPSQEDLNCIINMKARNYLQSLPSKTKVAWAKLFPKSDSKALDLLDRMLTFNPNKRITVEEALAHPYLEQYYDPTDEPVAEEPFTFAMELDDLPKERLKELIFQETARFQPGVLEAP
Chain of Serine/threonine-protein kinase Chk2 (Homo sapiens) (O96017 whole entry): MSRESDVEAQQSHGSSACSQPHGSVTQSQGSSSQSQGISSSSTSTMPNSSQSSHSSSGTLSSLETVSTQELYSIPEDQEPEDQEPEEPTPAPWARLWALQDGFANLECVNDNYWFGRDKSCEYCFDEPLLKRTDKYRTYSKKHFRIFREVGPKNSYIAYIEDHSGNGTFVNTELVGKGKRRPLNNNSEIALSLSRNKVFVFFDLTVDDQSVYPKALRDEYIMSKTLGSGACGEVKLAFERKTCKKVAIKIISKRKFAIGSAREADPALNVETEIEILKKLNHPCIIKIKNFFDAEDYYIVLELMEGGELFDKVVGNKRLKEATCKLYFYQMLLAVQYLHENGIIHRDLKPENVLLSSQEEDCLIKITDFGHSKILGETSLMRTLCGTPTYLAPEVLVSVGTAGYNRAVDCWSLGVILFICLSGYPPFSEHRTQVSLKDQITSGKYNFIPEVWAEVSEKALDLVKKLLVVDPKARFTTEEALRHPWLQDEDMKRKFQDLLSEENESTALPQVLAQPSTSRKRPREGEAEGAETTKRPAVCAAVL
Chain of Mitogen-activated protein kinase 1 (Mus musculus) (P63085 whole entry): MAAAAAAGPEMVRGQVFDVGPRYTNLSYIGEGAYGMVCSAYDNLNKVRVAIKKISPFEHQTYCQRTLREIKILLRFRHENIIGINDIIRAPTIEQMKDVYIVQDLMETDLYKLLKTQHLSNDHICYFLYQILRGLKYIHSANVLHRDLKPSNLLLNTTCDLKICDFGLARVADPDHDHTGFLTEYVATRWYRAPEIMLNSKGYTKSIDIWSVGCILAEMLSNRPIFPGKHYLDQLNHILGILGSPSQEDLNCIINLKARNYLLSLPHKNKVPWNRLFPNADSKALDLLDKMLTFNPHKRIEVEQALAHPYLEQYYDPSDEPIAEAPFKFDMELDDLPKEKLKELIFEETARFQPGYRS
Chain of CDK3/cyclin E (Homo sapiens) (O96020 whole entry, looked up): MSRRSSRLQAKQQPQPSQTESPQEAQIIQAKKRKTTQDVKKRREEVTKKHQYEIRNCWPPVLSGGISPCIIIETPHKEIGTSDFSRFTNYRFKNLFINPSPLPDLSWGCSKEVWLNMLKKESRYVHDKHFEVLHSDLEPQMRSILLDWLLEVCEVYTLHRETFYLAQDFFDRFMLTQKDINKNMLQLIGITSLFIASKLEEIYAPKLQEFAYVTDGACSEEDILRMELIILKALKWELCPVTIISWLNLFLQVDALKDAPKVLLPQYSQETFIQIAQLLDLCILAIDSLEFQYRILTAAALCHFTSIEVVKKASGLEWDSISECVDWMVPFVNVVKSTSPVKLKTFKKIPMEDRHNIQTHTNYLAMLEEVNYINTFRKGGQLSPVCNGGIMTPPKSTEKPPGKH
Chain of CDK3/cyclin E (Homo sapiens) (P24864 whole entry, looked up): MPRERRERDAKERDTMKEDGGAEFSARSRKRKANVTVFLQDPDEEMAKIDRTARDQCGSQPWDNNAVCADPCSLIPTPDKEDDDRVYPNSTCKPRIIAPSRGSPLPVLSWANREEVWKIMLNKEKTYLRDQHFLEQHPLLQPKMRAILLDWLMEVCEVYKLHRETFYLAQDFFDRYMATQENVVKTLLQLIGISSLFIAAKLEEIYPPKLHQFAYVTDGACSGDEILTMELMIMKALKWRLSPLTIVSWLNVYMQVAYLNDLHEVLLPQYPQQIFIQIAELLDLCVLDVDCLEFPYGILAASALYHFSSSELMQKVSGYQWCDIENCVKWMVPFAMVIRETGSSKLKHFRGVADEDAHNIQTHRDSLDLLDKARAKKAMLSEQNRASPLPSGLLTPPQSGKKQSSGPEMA
Chain of CDK3/cyclin E (Homo sapiens) (Q00526 whole entry, looked up): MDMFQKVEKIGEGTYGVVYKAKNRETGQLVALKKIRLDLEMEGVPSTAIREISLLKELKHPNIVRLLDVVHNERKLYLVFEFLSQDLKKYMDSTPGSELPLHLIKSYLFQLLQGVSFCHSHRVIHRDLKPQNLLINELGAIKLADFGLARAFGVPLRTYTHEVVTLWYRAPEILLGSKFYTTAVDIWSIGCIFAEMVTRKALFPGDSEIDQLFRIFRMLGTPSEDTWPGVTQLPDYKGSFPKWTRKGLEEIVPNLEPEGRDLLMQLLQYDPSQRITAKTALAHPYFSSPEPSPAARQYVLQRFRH
Chain of Mitogen-activated protein kinase 1 (Homo sapiens) (P28482 whole entry): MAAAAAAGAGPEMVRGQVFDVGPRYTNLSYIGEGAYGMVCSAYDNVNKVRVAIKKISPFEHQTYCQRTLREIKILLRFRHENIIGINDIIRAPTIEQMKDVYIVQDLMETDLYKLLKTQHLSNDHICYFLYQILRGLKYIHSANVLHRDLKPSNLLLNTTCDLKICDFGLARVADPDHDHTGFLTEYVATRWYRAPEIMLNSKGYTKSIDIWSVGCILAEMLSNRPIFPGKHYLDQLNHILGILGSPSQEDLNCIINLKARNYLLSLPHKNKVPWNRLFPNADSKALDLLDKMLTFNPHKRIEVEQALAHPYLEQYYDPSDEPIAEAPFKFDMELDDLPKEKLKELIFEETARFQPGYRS
Chain of Tyrosine-protein kinase Blk (Mus musculus) (P16277 whole entry): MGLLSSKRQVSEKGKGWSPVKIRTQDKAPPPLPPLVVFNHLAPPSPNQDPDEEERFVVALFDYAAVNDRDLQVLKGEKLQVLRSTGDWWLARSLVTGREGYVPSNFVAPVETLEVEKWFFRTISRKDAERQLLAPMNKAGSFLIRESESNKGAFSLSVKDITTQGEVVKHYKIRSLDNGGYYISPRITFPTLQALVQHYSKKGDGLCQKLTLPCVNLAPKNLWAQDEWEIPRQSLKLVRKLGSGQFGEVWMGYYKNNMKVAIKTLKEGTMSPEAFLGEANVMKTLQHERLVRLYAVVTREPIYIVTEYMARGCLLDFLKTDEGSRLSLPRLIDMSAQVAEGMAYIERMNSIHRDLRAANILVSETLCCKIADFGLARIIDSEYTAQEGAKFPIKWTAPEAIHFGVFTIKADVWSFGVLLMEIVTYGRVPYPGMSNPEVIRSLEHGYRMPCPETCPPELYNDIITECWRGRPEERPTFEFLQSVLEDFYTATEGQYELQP
Chain of Ribosomal protein S6 kinase alpha-2 (Homo sapiens) (Q15349 whole entry): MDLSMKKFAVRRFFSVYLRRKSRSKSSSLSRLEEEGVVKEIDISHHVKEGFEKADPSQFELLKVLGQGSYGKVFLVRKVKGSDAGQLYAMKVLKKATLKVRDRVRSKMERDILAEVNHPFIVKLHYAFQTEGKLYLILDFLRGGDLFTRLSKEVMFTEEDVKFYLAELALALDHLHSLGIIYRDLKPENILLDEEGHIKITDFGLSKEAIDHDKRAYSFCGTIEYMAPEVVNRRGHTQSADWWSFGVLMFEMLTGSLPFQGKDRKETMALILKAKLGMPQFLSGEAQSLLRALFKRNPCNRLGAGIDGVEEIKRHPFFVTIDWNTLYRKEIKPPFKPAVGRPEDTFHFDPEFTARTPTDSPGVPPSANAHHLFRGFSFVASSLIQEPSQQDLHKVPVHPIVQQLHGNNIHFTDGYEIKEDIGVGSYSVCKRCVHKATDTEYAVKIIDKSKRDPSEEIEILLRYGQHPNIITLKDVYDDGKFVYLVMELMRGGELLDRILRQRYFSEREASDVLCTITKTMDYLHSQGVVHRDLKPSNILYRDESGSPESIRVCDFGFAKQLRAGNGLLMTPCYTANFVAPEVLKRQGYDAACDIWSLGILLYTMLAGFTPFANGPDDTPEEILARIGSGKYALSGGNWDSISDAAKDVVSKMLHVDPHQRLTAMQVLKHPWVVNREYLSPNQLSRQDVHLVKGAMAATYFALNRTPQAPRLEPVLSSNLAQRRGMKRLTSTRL

Activity [1] [%] | IC50 [2] [nM] | Activity [3] [%] | Activity [4] [%] | IC50 [5] [nM] | Activity [6] [%] | Activity [7] [%] | Activity [8] [%] | Activity [9] [%] | Activity [10] [%] | Activity [11] [%] | Activity [12] [%] | Activity [13] [%] | Activity [14] [%] | Activity [15] [%] | Structure (SMILES)
75 | 430 | 26 | 9 | 700 | 81 | 92 | 100 | 86 | 83 | 78 | 82 | 75 | 54 | 120 | COCCCn1cc(C2=C(c3ccccc3O)C(=O)NC2=O)c2cccnc21
67 | 2800 | 62 | 25 | 5800 | 83 | 91 | 93 | 87 | 86 | 66 | 59 | 92 | 77 | 86 | O=C1NC(=O)C(c2cn(CCCO)c3ncccc23)=C1c1ncc(C(F)(F)F)cc1Cl
63 | 68 | 3 | 2 | 170 | 91 | 92 | 89 | 101 | 95 | 81 | 57 | 49 | 31 | 122 | COc1ccccc1C1=C(c2cn(CCCNC(=O)OC(C)(C)C)c3ncccc23)C(=O)NC1=O
